Measurements as given in article PMC9229294, “Pyridazinones and Structurally Related Derivatives with Anti-Inflammatory Activity” (Molecules, 2022).
Read-outs that look alike come from different tables or passages of the source.

Experiments:
[1] = tested on: LPS-induced NF-κB activity in THP1-Blue cells; assay: Inhibition of LPS-induced NF-κB transcriptional activity, alkaline phosphatase reporter, THP1-Blue cells; format: cell-based, human; conditions: for IC50: Homo sapiens, LPS-induced NF-κB activity, human THP1-Blue cells, N.A. = no activity at 50 µM; for Observed class for inhibition of NF-κB activity: experimentally observed, Active or N.A.; for Inhibition of LPS-induced NF-κB activity (in words): THP1-Blue cells, 250 ng/mL LPS, 24 h
Procedure: (§1) Our studies included 175 compounds that were previously synthesized and characterized at NEUROFARBA, Pharmaceutical and Nutraceutical Section, University of Florence, Italy. We previously evaluated the FPR1/FPR2 agonist activity of these compounds by evaluating their ability to induce Ca^2+ mobilization in FPR-transfected HL60 cells and human neutrophils. […] All test compounds were dissolved in DMSO at stock concentrations of 10 mM and stored at −20 °C. For primary screening assays (analysis of NF-κB activation, IL-6 production, and cytotoxicity), the following final concentrations of the compounds were used: 3.125, 6.25, 12.5, 25, and 50 µM; the final concentration of DMSO was 1% in all samples.
The activation of NF-κB was measured using an alkaline phosphatase reporter assay in human monocytic THP1-Blue cells stably transfected with a secreted embryonic alkaline phosphatase gene that is under the control of a promoter inducible by the NF-κB. The THP1-Blue cells (2 × 10^5 cells/well) were pretreated with the test compound or DMSO for 30 min, followed by an addition of 250 ng/mL LPS for 24 h. Alkaline phosphatase activity was determined in cell supernatants using a QUANTI-Blue mix (InvivoGen) and measured at 655 nm and compared with positive control samples (LPS).

[2] = tested on: LPS-induced IL-6 production in MonoMac-6 cells; assay: Inhibition of LPS-induced IL-6 production in MonoMac-6 cells (ELISA); format: cell-based, human; conditions: for IC50: Homo sapiens, MONO-MAC-6, read-out: Inhibition of IL-6 Production IC50 in MonoMac-6 Cells; for Inhibition of LPS-induced IL-6 production (in words): MonoMac-6 cells, 250 ng/mL LPS, 24 h
Procedure: as §1
A human IL-6 ELISA kit (BD Biosciences, San Jose, CA, USA) was used to measure IL-6 production. […] The cells were pretreated with the test compound or DMSO for 30 min, followed by addition of 250 ng/mL LPS for 24 h. The IC50 values for IL-6 production were calculated by plotting the percentage inhibition against the logarithm of the inhibitor concentration (at least five points).

[3] = Cytotoxicity, CellTiter-Glo, THP1-Blue cells; format: cell-based, human; conditions: human, THP1-Blue cells; N.T. = no cytotoxicity at 50 µM; read-out: Cytotoxicity IC50 in THP1-Blue Cells
Procedure: as §1
(§2) The cytotoxicity was analyzed with a CellTiter-Glo Luminescent Cell Viability Assay Kit from Promega (Madison, WI, USA), according to the manufacturer’s protocol. The luminescent ATP assays are based on a luciferase enzymatic reaction which uses ATP from viable cells to generate photons. For this assay, the cells were incubated with the compounds under investigation for 24 h. After treatment, the cells were equilibrated to room temperature for 30 min, luciferase + luciferin substrate was added, and the samples were analyzed with a Fluoroscan Ascent FL (Thermo Fisher Scientific, Waltham, MA, USA). The IC50 values were calculated by plotting the percentage inhibition against the logarithm of the inhibitor concentration (at least five points).

[4] = Cytotoxicity, CellTiter-Glo, MonoMac-6 cells; format: cell-based, human; conditions: human, MonoMac-6 cells
Procedure: as §1, §2

FPR1 = target: T1, FPR1 (Homo sapiens, UniProt P21462); conditions: FPR1-transfected HL-60 cells, read-out: Ca2+ Mobilization FPR1 EC50 in HL-60 Cells, cited from earlier work
T1 construct: expressed in transfected cells; host or cells: HL-60 cells (FPR1-HL60)
T1 sequence (P21462 1-350): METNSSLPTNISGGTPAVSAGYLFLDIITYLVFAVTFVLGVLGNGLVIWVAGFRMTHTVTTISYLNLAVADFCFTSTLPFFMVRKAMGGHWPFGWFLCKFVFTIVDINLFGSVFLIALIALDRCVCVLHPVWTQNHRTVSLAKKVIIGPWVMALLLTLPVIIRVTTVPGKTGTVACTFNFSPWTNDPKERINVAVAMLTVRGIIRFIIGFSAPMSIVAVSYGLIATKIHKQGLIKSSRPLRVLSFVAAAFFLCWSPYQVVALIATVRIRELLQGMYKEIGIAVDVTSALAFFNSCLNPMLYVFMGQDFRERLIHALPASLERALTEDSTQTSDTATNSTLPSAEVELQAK

FPR2 = target: T2, FPR2 (Homo sapiens, UniProt P25090); conditions: FPR2-transfected HL-60 cells, read-out: Ca2+ Mobilization FPR2 EC50 in HL-60 Cells, cited from earlier work
T2 construct: expressed in transfected cells; host or cells: HL-60 cells (FPR2-HL60)
T2 sequence (P25090 1-351): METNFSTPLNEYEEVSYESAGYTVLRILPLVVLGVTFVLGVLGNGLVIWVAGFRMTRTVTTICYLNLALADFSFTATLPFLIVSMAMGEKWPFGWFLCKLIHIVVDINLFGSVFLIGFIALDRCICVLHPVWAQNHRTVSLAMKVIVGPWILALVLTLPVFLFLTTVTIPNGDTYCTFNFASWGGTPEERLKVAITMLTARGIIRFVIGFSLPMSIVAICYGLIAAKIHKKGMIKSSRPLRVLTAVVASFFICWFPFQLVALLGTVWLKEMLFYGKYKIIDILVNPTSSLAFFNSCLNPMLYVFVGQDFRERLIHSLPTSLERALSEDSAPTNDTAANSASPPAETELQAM

[5] = Table 3, as reported previously (see Table 1)

| SMILES | IC50 [1] | IC50 [2] | Observed class for inhibition of NF-κB activity [1] | Inhibition of LPS-induced IL-6 production (in words) [2] | IC50 at 24 h [3] | IC50 at 24 h [4] | EC50 (FPR1; agonist activity from Table 1) | EC50 (FPR1; [5]) | EC50 (FPR2; agonist activity from Table 1) | EC50 (FPR2; [5]) | Inhibition of LPS-induced NF-κB activity (in words) [1] |
| --- | --- | --- | --- | --- | --- | --- | --- | --- | --- | --- | --- |
| COc1ccc(-c2cc(Cc3cccc(OC)c3)c(=O)n(CC(=O)Nc3ccc(F)cc3)n2)cc1 [Compound 38] | 19.6 ± 4.3 µM | 20.3 ± 1.8 µM | Active | inhibitors of IL-6 production | > 50 µM | > 50 µM | > 50 µM | > 50 µM | > 50 µM | > 50 µM |  |
| COc1cccc(Cc2cc(-c3ccc(Cl)cc3)nn(CC(=O)Nc3ccc(F)cc3)c2=O)c1 [Compound 42] | 22.5 ± 2.3 µM | 35.6 ± 3.1 µM |  | inhibitors of IL-6 production | > 50 µM | > 50 µM | > 50 µM | > 50 µM | > 50 µM | > 50 µM | active |
| COc1cccc(Cc2cc(-c3ccc(C)cc3)nn(CC(=O)Nc3ccc(F)cc3)c2=O)c1 [Compound 46] | 8.2 ± 1.2 µM | > 50 µM |  | inhibitors of IL-6 production | > 50 µM | > 50 µM | > 50 µM | > 50 µM | > 50 µM | > 50 µM | active |
| COc1cccc(Cc2cc(-c3ccc(F)cc3)nn(CC(=O)Nc3ccc(F)cc3)c2=O)c1 [Compound 47] | 3.4 ± 0.2 µM | 18.8 ± 2.9 µM |  | inhibitors of IL-6 production | > 50 µM | > 50 µM | > 50 µM | > 50 µM | > 50 µM | > 50 µM | active |

Now from value to compound, other results behind:

| IC50 [1] | IC50 [2] | SMILES | Observed class for inhibition of NF-κB activity [1] | Inhibition of LPS-induced IL-6 production (in words) [2] | IC50 at 24 h [3] | IC50 at 24 h [4] | EC50 (FPR1; agonist activity from Table 1) | EC50 (FPR1; [5]) | EC50 (FPR2; agonist activity from Table 1) | EC50 (FPR2; [5]) | Inhibition of LPS-induced NF-κB activity (in words) [1] |
| --- | --- | --- | --- | --- | --- | --- | --- | --- | --- | --- | --- |
| 20.7 ± 0.7 µM | 17 ± 0.4 µM | CCc1c(C)nn(CC(=O)Nc2ccc(Br)cc2)c(=O)c1Cc1cccc(OC)c1 [Compound 78] | Active |  | > 50 µM | > 50 µM |  | 3.2 µM |  | 1.9 µM |  |
| 15.7 ± 1.4 µM | 13.7 ± 1.4 µM | CCCc1c(C)nn(CC(=O)Nc2ccc(Br)cc2)c(=O)c1Cc1cccc(OC)c1 [Compound 79] | Active |  | > 50 µM | > 50 µM | 2.2 µM |  | 4.6 µM |  |  |
| 15 ± 1.5 µM | 33.5 ± 2.4 µM | CCCCc1c(C)nn(CC(=O)Nc2ccc(Br)cc2)c(=O)c1Cc1cccc(OC)c1 [Compound 80] | Active |  | > 50 µM | > 50 µM | > 50 µM | > 50 µM |  | 15.7 µM |  |
| 14.6 ± 1.4 µM | 15.2 ± 0.2 µM | CCCc1c(C)nn(CC(=O)Nc2ccc(Br)cc2)c(=O)c1Nc1cccc(OC)c1 [Compound 83] | Active | inhibitors of IL-6 production | > 50 µM | > 50 µM | > 50 µM | > 50 µM | > 50 µM | > 50 µM |  |
| 29.2 ± 1 µM | 27.9 ± 2.2 µM | COc1cccc(Cc2cc(C)nn(C(C)(C)C(=O)Nc3ccc(Br)cc3)c2=O)c1 [Compound 89] | Active |  | > 50 µM | > 50 µM | 6.3 µM | 6.3 µM | 20.4 µM | 20.4 µM |  |
| 30.8 ± 6.7 µM | 14.3 ± 2 µM | CC[C@H](C(=O)Nc1ccc(Br)cc1)n1nc(C)cc(Cc2cccc(OC)c2)c1=O [Compound 94] |  |  | > 50 µM | > 50 µM | 2.8 µM | 2.8 µM | 2.3 µM | 2.3 µM |  |
| 12.1 ± 2.4 µM | 9.8 ± 1 µM | CC[C@@H](C(=O)Nc1ccc(Br)cc1)n1nc(C)cc(Cc2cccc(OC)c2)c1=O [Compound 95] |  |  | > 50 µM | > 50 µM | 13.4 µM | 13.4 µM | 22.2 µM | 22.2 µM |  |
